In patent publication US20060018951A1, “pH-responsive film for intravaginal delivery of a beneficial agent” (SRI International, priority 2003, published 2006):

Tested on: sperm
Assay: Sperm motility assay
Format: cell-based, Sprague-Dawley rats
Protocol: Male Sprague-Dawley-rats, between the ages of 16-22 weeks, were used for this study. Following anesthesia, both testes were removed and the epididymides were collected, rinsed in warm Dulbecco's phosphate buffered saline (37° C.), and placed in a petri dish containing approximately 10 mL warm MHF-10 (37° C.). The epididymides were minced with scissors to release sperm. Pipette sperm suspension into a 50 mL plastic centrifuge tube with a screw cap. Dilute sperm with additional MHF-10 (approximately 5-12 mL) to form a milky suspension. The initial percentage of motile sperm must be at least 70% for a valid assay, and is determined by inoculating 200 μL sperm suspension into 0.8 mL MHF-10 and counting motile versus nonmotile sperm. After the test article concentrations equilibrated in a 36° to 37° C. incubator for at least 30 minutes, 200 μL aliquots of the sperm suspension were added to the 0.8 mL test compound concentrations, two at a time, at 5 minute intervals, beginning with the highest concentration and proceeding to in order to the lowest concentration, then ending with vehicle and positive controls. The final volume was 1 mL per test compound concentration. Motility was assessed using a microscope. 50-μL aliquots of the test concentration, containing sperm, were added to the wells of preheated glass slides and covered with preheated glass coverslips. Pipette tips, slides, and coverslips were maintained at 36-37° C. on a warming plate. Motility was assessed at the appropriate exposure times, generally 20 and 40 min after addition of sperm to the test concentration. The degrees of motility of≧200 sperm per concentration per time point were evaluated as either not motile (0), incipiently motile (quivering/pulsing/wiggling) (1), slowly motile (2), or rapidly motile (3). Criteria for a Valid Assay. […] Percent motility in the tables below is calculated as (Prog. Motile)/Total (Prog.+Incip.+Non)×100.

[1] = Experiment B, 1 min, film 49.1-50 mg, N9 amount not given, sperm count
[2] = Experiment B, 15 min, film 49.1-50 mg, N9 amount not given, sperm count
[3] = Experiment B, 30 min, film 49.1-50 mg, N9 amount not given, sperm count
[4] = Experiment C, 1 min, Nos 5-8: films 49.9-51.0 mg, N9 amount not given, sperm count
[5] = Experiment C, 15 min, Nos 5-8: films 49.9-51.0 mg, N9 amount not given, sperm count
[6] = Experiment C, 30 min, Nos 5-8: films 49.9-51.0 mg, N9 amount not given, sperm count
[7] = Experiment D, 1 min, films 50-50.09 mg, N9 amount not given, sperm count
[8] = Experiment D, 15 min, films 50-50.09 mg, N9 amount not given, sperm count
[9] = Experiment D, 30 min, films 50-50.09 mg, N9 amount not given, sperm count
[10] = first sperm study (T8), 1 min, films 4.3-19.8 mg, sperm count
[11] = first sperm study (T8), 15 min, films 4.3-19.8 mg, sperm count
[12] = first sperm study (T8), 30 min, films 4.3-19.8 mg, sperm count

`CC(O)C(=O)O` (centres unmarked) [Lactic Acid 4%, Lactic Acid] gave a Non-Mot (Experiment B, 1 min, 100 μl solution, sperm count) of 103 and a Non-Mot (Experiment B, 1 min, 200 μl solution, sperm count) of 200.

With “nonylphenoxypolyethoxy ethanol [Formulation N-9]” the “% Motility” value (Experiment B, 1 min, film 49.1-50 mg, N9 amount not given) was 0%, the Incip.Mot [1] was 0 and the Non-Mot [1] was 200. For the same molecule, the Prog.-Mot [1] was 0, the “% Motility” value (Experiment B, 15 min, film 49.1-50 mg, N9 amount not given) was 0% and the Incip.Mot [2] was 0. For the same molecule, the Non-Mot [2] was 200, the “% Motility” value (Experiment B, 30 min, film 49.1-50 mg, N9 amount not given) was 0% and the Incip.Mot [3] was 0. For the same molecule, the Non-Mot [3] was 200, the Prog.Mot [3] was 0 and the “% Motility” value (Experiment C, 1 min, Nos 5-8: films 49.9-51.0 mg, N9 amount not given) was 0%. The Incip.Mot [4] was 0, the Non-Mot [4] was 200 and the Prog-Mot [4] was 0. For the same molecule, the Total (Experiment C, 15 min, Nos 5-8: films 49.9-51.0 mg, N9 amount not given) was 0, the Incip.Mot [5] was 0 and the Mot [5] was 0. It also gave a Non-Mot [5] of 200, a Total (Experiment C, 30 min, Nos 5-8: films 49.9-51.0 mg, N9 amount not given) of 0 and an Incip.Mot [6] of 0. For the same molecule, the Mot [6] was 0, the Non-Mot [6] was 200 and the “% Motility” value (Experiment D, 1 min, films 50-50.09 mg, N9 amount not given) was 0%. The Incip.Mot [7] was 0, the Non-Mot [7] was 200 and the Prog.Mot [7] was 0. The “% Motility” value (Experiment D, 15 min, films 50-50.09 mg, N9 amount not given) was 0%, the Incip.Mot [8] was 0 and the Non-Mot [8] was 200. The Prog.Mot [8] was 0, the “% Motility” value (Experiment D, 30 min, films 50-50.09 mg, N9 amount not given) was 0% and the Incip.Mot [9] was 0. For the same molecule, the Mot [9] was 0, the “% Motility” value (first sperm study (T8), 1 min, films 4.3-19.8 mg) was 0% and the Incip.Mot [10] was 0. The Non-Mot [10] was 100, the “% Motility” value (first sperm study (T8), 15 min, films 4.3-19.8 mg) was 0% and the Incip.Mot [11] was 0. For the same molecule, the Non-Motile [11] was 100, the Prog-Motile [11] was 0 and the “% Motility” value (first sperm study (T8), 30 min, films 4.3-19.8 mg) was 0%. It also gave an Incip.Mot [12] of 0, a Non-Motile [12] of 100 and a Prog-Motile [12] of 0.
